# From patent US20060247156A1, “Use of neuropeptides for ligament, cartilage, and bone healing” (priority 2004, published 2006)
# “Also recorded” adds a separate entry of the source.
# Tests used:
# [1] = test system: ruptured MCL of a FNT rat; assay: Local neuropeptide delivery to ruptured MCL of femoral nerve transected (FNT) rats: mechanical testing, histomorphology; assay type: in vivo; conditions: for failure force / ultimate stress / mechanical strength of healing MCL (in words): two weeks of healing; for mechanical strength of healing MCL (in words): local delivery of SP or CGRP
# From the text: Surgical Procedure: Thirteen female Wistar rats (278 g to 315 g) were divided into two groups: femoral nerve transection (FNT) or sham control. All rats were anesthetized with isofluorane (isofluorane 0.5-3%). […] Skin covering the anterior inguinal region was shaved and prepared for surgery. A skin incision approximately 15 mm long was made and the fascia distal to the inguinal was incised. The femoral artery, vein, and nerve were exposed and the femoral nerve was isolated and transected (with removal of a 5 mm segment of the nerve) using 3-0 dexon suture. The fascia and skin were closed in two layers with 3-0 continuous dexon suture. Immediately following FNT, rats from each group (n=4 FNT; n=3 controls) underwent a complete surgical rupture of the MCL to one knee. The contra-lateral knee underwent sham surgery. Two weeks post-knee surgery, rats were sacrificed using an overdose of pentobarbitone (150 mg/kg).
# Local delivery of NPs and NP inhibitors is important to identify the specific roles of individual NPs on healing tissues. […] Briefly, NP infused mini-osmotic pumps were implanted subcutaneously into the back of rats. A small catheter running from the pump to an intramuscular space above the MCL was secured to the rat.
# To test whether sensory NPs improve healing in femoral nerve transection (FNT) ruptured MCLs, three female Wistar rats (199 g to 203 g) were given SP locally to the MCL. Substance P (103 pg/μl) was infused into a miniosmotic pump and was delivered to a ruptured MCL of a FNT rat (see surgical procedure in Example 1 above). […] The results are presented graphically in FIG. 5
# Animal Model and Surgery: Thirty-seven female Wistar rats (199-298 g) were divided into five groups. […] Rats that were designated to receive NPY, VIP, or a combination of NPY and VIP underwent bilateral surgical sympathectomy. Following surgical nerve transection, each rat also underwent bilateral MCL rupture. Neuropeptides were then delivered ruptured MCLs unilaterally. Neuropeptide infused mini-osmotic pumps (Alzet Corp.) were implanted subcutaneously into the back of each rat. A small catheter running from the pump was run to an intramuscular space above the MCL and was secured. To ensure that neuropeptides are delivered directly to the MCL, rhodamine labeled SP was delivered via a catheter to the MCL (n=2 rats).
# To test whether autonomic NPs improve healing in SS ruptured MCLs, seven rats were given VIP, seven rats were given NPY, and seven rats were given a combination of VIP and NPY.
# Mechanical Testing: Mechanical testing was performed as described in the preceding examples. Briefly, animal hind limbs from all groups (n=4 for all groups) were disarticulated at the hip joint and stored at −80° C. until testing. On the day of testing, MCLs including intact femoral and tibial bone sections were excised for ex vivo testing. Ligament thickness and width was measured optically, and MCL area was estimated with elliptical geometry. For strain measurements, optical markers were placed onto the ligament tissue near the insertion sites. A small preload of 0.1N was applied to the ligaments in order to obtain a uniform starting point. The ligaments were then preconditioned to 1% strain for 10 cycles. After preconditioning, ligaments were pulled to failure at a rate of ˜10% per second. Tissue displacement was obtained using video dimensional analysis using equations (1) and (2) supra. The mechanical properties that were examined in this study were maximum force, ultimate stress, strain at failure, elastic modulus, and area.
# [2] = test system: cartilage and subchondral bone defect in the trochlear groove; assay: Full-thickness cartilage defect healing with substance P delivery, histological grading; assay type: in vivo, rat
# From the text: Purpose-bred male Wistar rats, were used in this Example. Rats were acclimated to the animal care facility for seven days before use. All rats then undergo general anesthesia for surgical induction of cartilage injury. All rats underwent bilateral surgery. At the time of surgery, miniosmotic pumps were placed for NP treatment. All pumps remained in place throughout the experiment. At various time intervals after the surgery (2, 4 and 6 weeks), the rats were euthanized each joint was harvested for histological analysis.
# Cartilage Injury: A […] long incision was made over the patellar tendon and the tendon and surrounding tissue was exposed. A mini-arthrotomy was made and the patella was subluxed (dislocated) to expose the femoral condyles and trochlear groove. A drill was used to create a full thickness (3 mm deep) hole, 0.635 mm in diameter, in the trochlear groove. The patella was then repositioned and the muscle fascia and subcutaneous tissue was closed with a continuous suture pattern, and the skin apposed with skin staples.
# Neuropeptide delivery: Substance P (75 pg/100 μl) was infused subcutaneously (0.25 μl/hr) via the implantation of mini-osmotic pumps (Alza Corp. Palo Alto, Calif.). In all rats, neuropeptide infused pumps were implanted in a subcutaneous pocket after induction of general anesthesia. […]
# [3] = Example 3: SP 103 pg/μl via mini-osmotic pump to ruptured MCL of FNT rat
# [4] = Example 6: SP 75 pg/100 μl via mini-osmotic pump, FNT rats, bilateral MCL rupture
substance,measurement,setting,value
Substance P [SP],failure force,[1]; [3],74.3 N
same,ultimate stress,[1]; [3],72.33 MPa
same,failure force,[1]; [4],74.3±7.9 N
same,ultimate stress,[1]; [4],72.33±22.1 MPa
same,histomorphology (H&E) of healing MCL,"[1]; FNT rats, SP 75 pg/100 μl or CGRP 10 pg/100, two weeks",cells were more aligned
same,mechanical strength of healing MCL (in words),[1]; FNT rats,"greater than the strength of uninjured MCLs; also recorded: greater than that of normally innervated, intact MCLs"
same,mechanical strength of healing MCL (in words),"[1]; FNT rats, listed as Substance P",completely reversed the functional deficits
same,average cartilage repair score (0 no damage to 24),"[2]; Substance P 75 pg/100 μl, 0.25 μl/hr via mini-osmotic pump, initial two week period, Sellers grading",11.9
same,healing of cartilage and subchondral bone (in words),[2]; full-thickness cartilage defects after two weeks of healing,greatly improved healing of both the cartilage and subchondral bone
